Read-outs that look alike come from different tables or passages of the source. Blank lines part the entries; values can stand above or below the compound they belong to.
Columns and labels:
[1] = test system: CK1δ(1–294); settings: Working Group A, ATP 20 µM; cited from earlier work
[2] = test system: CK1δ of yeast origin; settings: Working Group B, ATP 100 µM; cited from earlier work
[3] = test system: CK1εΔ319; design: method as in PMID 17502429; settings: Working Group A, CK1εΔ319, ATP 5 µM; cited from earlier work
[4] = test system: 6×His-CK1ε; design: method as in PMID 19458106; settings: Working Group B, ATP 10 µM; cited from earlier work
[5] = test system: untagged CK1δ; design: method as in PMID 19458106; settings: CK1-specific peptide substrate, ATP 10 µM, luminescence-based, read-out: IC50 in Literature; cited from earlier work
[6] = test system: CK1δ; settings: Working Group A, ATP 10 µM; cited from earlier work
[7] = test system: CK1δ; design: method as in PMID 31817920; settings: ATP 10 µM, read-out: IC50 in Literature; cited from earlier work
[8] = biological target: GST-CK1δ (Homo sapiens, UniProt P48730); assay: radiometric in vitro kinase reaction, GST-CK1δ, phosphate incorporation into α-casein
Chain of GST-CK1δ (P48730 whole entry): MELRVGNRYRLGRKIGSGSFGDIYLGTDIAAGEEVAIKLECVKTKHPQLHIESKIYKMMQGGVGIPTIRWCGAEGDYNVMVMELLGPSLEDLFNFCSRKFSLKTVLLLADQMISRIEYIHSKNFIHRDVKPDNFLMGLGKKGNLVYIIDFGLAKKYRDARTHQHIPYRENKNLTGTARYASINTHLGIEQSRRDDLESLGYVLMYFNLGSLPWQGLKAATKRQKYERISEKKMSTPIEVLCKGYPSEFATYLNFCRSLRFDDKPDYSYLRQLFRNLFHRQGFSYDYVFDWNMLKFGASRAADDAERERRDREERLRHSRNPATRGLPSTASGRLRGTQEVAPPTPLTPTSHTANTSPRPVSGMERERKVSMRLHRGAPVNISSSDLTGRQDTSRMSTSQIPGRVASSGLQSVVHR
Procedure: (§1) All in vitro kinase reactions were performed at 30 °C in a total volume of 15 µL containing 25 mM Tris-HCl (pH 7.0), 10 mM MgCl2, 100 µM EDTA and 0.4 pmol [γ-^32P]-ATP. […] GST- or 6×His-tagged CK1δ or CK1ε were used as enzymes in 7, 70 or 335 nM concentration. Additionally, a reaction without enzyme was performed and used to determine the background signal specifying the minimal usable enzyme concentration (signal to background ratio ≥10). Reactions were stopped by adding 3 µL of 5× SDS loading buffer and boiling at 95 °C for 5 min. Proteins were separated by SDS-PAGE and stained with Coomassie Brilliant Blue R250 (Waldeck GmbH & Co. KG, Muenster, Germany). Radioactively labelled proteins were visualized by autoradiography. For quantification, phosphorylated proteins were excised from dried gels and phosphate incorporation was measured via Cherenkov counting.
(§2) Raw data was used to calculate enzyme velocity (V) (phosphate transfer per min). V was plotted over ATP concentration and fitted to the Michaelis-Menten model using GraphPad Prism 7 (GraphPad Software, La Jolla, CA, USA). Km was calculated as the concentration of substrate needed to get half-maximal velocity. In order to determine IC50 values, raw data was transformed from initially measured cpm values to pmol of transferred phosphate. Subsequently data was transformed logarithmically (X = log(X)), normalized to DMSO (100%) and zero (0%) and finally fit to sigmoidal dose-response curves (variable slope) with nonlinear regression using GraphPad Prism 7.

[9] = biological target: 6×His-CK1δ (Homo sapiens, UniProt P48730); assay: radiometric in vitro kinase reaction, 6×His-CK1δ, phosphate incorporation into α-casein
Chain of 6×His-CK1δ (P48730 whole entry): as above
Procedure: as §1, §2

[10] = biological target: T1, 6×His-CK1ε (Homo sapiens, UniProt P49674); assay: radiometric in vitro kinase reaction, 6×His-CK1ε, phosphate incorporation into α-casein; assay type: biochemical
T1 construct: made in house
T1 sequence (P49674 whole entry): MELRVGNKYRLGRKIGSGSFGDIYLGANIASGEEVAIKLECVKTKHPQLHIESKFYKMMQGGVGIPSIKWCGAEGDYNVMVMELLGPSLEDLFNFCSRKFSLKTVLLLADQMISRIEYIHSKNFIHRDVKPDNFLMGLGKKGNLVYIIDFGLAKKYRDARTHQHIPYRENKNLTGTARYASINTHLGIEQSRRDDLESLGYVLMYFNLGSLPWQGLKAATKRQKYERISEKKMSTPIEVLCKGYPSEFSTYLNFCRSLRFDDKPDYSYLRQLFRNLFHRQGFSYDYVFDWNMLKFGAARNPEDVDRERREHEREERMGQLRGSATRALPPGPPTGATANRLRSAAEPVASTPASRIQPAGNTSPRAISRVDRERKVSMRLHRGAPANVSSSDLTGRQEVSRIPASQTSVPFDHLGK
Procedure: as §1
Raw data was used to calculate enzyme velocity (V) (phosphate transfer per min). V was plotted over ATP concentration and fitted to the Michaelis-Menten model using GraphPad Prism 7 (GraphPad Software, La Jolla, CA, USA). Km was calculated as the concentration of substrate needed to get half-maximal velocity. In order to determine IC50 values, raw data was transformed from initially measured cpm values to pmol of transferred phosphate. […]

SMILES: NC(=O)c1ccc(-c2nc(-c3ccc4c(c3)OCCO4)c(-c3ccccn3)[nH]2)cc1 [D4476]
IC50 [1]: 300 nM
IC50 [2]: 200 nM

SMILES: Nc1nccc(-c2c(-c3ccc(F)cc3)ncn2C2CCCCC2)n1 [PF-670462]
IC50 [3]: 8 nM
IC50 [4]: 80 nM
IC50 [5]: 13 nM

SMILES: COc1cc(OC)c(C=C2C(O)=Nc3ccccc32)c(OC)c1 [IC261]
IC50 [6]: 1000 nM
IC50 [2]: 2500 nM

IC50 ([8]; GST-CK1δ 7 nM, 10 min, ATP equal to Km (ATP) 6 µM, α-casein 10 µM, 30 °C): 396 nM
Ki ([8]; read-out: Kic, GST-CK1δ, Kic = IC50/2 (Cheng-Prusoff, ATP = Km)): 198 nM
IC50 ([9]; 6×His-CK1δ 70 nM, 10 min, ATP equal to Km (ATP) 14 µM, α-casein 10 µM, 30 °C): 404 nM
Ki ([9]; read-out: Kic, 6×His-CK1δ, Kic = IC50/2 (Cheng-Prusoff, ATP = Km)): 202 nM
SMILES: O=C(Nc1nc2ccc(C(F)(F)F)cc2s1)Sc1nccc(=O)n1Cc1ccc(OC(F)(F)F)cc1 [Liu-20]
IC50 [7]: 86 nM

IC50 [10]: 72.3 nM
Ki ([10]; 6×His-CK1ε, Kic = IC50/2 (Cheng-Prusoff, ATP = Km)): 36.2 nM
SMILES: Nc1ncnc2c1c(COc1cccc(Cl)c1)nn2C1CCOCC1 [PF-4800567]

Km ([8]; read-out: Km (ATP), GST-CK1δ 7 nM, 10 min, ATP 0.5 to 100 µM, Michaelis-Menten): 6 µM
Km ([9]; read-out: Km (ATP), 6×His-CK1δ 70 nM, 10 min, ATP 0.5 to 100 µM, Michaelis-Menten): 14 µM
SMILES: Nc1ncnc2c1ncn2[C@@H]1O[C@H](COP(=O)(O)OP(=O)(O)OP(=O)(O)O)[C@@H](O)[C@H]1O [ATP]

From paper PMC8401859 (Molecules, 2021)
